{
  "source": "patent US20220175799A1",
  "about": "“COMPOSITIONS HAVING THE ABILITY TO PROMOTE HEALTHY CHOLESTEROL LEVELS” (Brilliant Lab LLC, priority 2020, published 2022)",
  "origin": "cited, not measured here",
  "key": {"[1]": {"assay": "not given", "remark": "listed apart in the source"}, "[2]": {"assay": "not given", "remark": "listed apart in the source"}},
  "note": "Read-outs that look alike come from different tables or passages of the source.",
  "data": [
    {"compound": "CC(C)c1c(C(=O)Nc2ccccc2)c(-c2ccccc2)c(-c2ccc(F)cc2)n1CC[C@@H](O)C[C@@H](O)CC(=O)O", "note": "[Atorvastatin]", "values": [
      {"measurement": "Reduction in LDL-C levels", "setting": "statin daily oral dose 5 mg", "value": 58.3917, "unit": "mg/dL"},
      {"measurement": "Reduction in LDL-C levels", "setting": "statin daily oral dose 10 mg", "value": 69.2193, "unit": "mg/dL"},
      {"measurement": "Reduction in LDL-C levels", "setting": "statin daily oral dose 20 mg", "value": 80.0469, "unit": "mg/dL"},
      {"measurement": "Reduction in LDL-C levels", "setting": "statin daily oral dose 40 mg", "value": 91.2612, "unit": "mg/dL"},
      {"measurement": "Reduction in LDL-C levels", "setting": "statin daily oral dose 80 mg", "value": 102.0888, "unit": "mg/dL"},
      {"measurement": "% LDL-C Reduction", "setting": "[1]; statin dose 10 mg", "value": 38, "unit": "%"},
      {"measurement": "% LDL-C Reduction", "setting": "[1]; statin dose 20 mg", "value": 42, "unit": "%"},
      {"measurement": "% LDL-C Reduction", "setting": "[1]; statin dose 40 mg", "value": 52, "unit": "%"},
      {"measurement": "% LDL-C Reduction", "setting": "[1]; statin dose 80 mg", "value": 60, "unit": "%"}
    ]},
    {"compound": "CC(C)n1c(/C=C/C(O)CC(O)CC(=O)O)c(-c2ccc(F)cc2)c2ccccc21", "note": "(stereo not shown) [Fluvastatin]", "values": [
      {"measurement": "Reduction in LDL-C levels", "setting": "statin daily oral dose 5 mg", "value": 17.7882, "unit": "mg/dL"},
      {"measurement": "Reduction in LDL-C levels", "setting": "statin daily oral dose 10 mg", "value": 28.6158, "unit": "mg/dL"},
      {"measurement": "Reduction in LDL-C levels", "setting": "statin daily oral dose 20 mg", "value": 39.4434, "unit": "mg/dL"},
      {"measurement": "Reduction in LDL-C levels", "setting": "statin daily oral dose 40 mg", "value": 50.271, "unit": "mg/dL"},
      {"measurement": "Reduction in LDL-C levels", "setting": "statin daily oral dose 80 mg", "value": 61.0986, "unit": "mg/dL"},
      {"measurement": "% LDL-C Reduction", "setting": "[1]; statin dose 20 mg", "value": 20, "unit": "%"},
      {"measurement": "% LDL-C Reduction", "setting": "[1]; statin dose 40 mg", "value": 24, "unit": "%"},
      {"measurement": "% LDL-C Reduction", "setting": "[1]; statin dose 80 mg", "value": 34, "unit": "%"}
    ]},
    {"compound": "CC[C@H](C)C(=O)O[C@H]1C[C@@H](C)C=C2C=C[C@H](C)[C@H](CC[C@@H]3C[C@@H](O)CC(=O)O3)[C@H]21", "note": "[Lovastatin]", "values": [
      {"measurement": "Reduction in LDL-C levels", "setting": "statin daily oral dose 10 mg", "value": 39.4434, "unit": "mg/dL"},
      {"measurement": "Reduction in LDL-C levels", "setting": "statin daily oral dose 20 mg", "value": 54.138, "unit": "mg/dL"},
      {"measurement": "Reduction in LDL-C levels", "setting": "statin daily oral dose 40 mg", "value": 68.4459, "unit": "mg/dL"},
      {"measurement": "Reduction in LDL-C levels", "setting": "statin daily oral dose 80 mg", "value": 83.1405, "unit": "mg/dL"},
      {"measurement": "% LDL-C Reduction", "setting": "[1]; statin dose 10 mg", "value": 20, "unit": "%"},
      {"measurement": "% LDL-C Reduction", "setting": "[1]; statin dose 20 mg", "value": 26, "unit": "%"},
      {"measurement": "% LDL-C Reduction", "setting": "[1]; statin dose 40 mg", "value": 30, "unit": "%"},
      {"measurement": "% LDL-C Reduction", "setting": "[1]; statin dose 80 mg", "value": 38, "unit": "%"}
    ]},
    {"compound": "O=C(O)C[C@H](O)C[C@H](O)/C=C/c1c(C2CC2)nc2ccccc2c1-c1ccc(F)cc1", "note": "[Pitavastatin]", "values": [
      {"measurement": "% LDL-C Reduction", "setting": "[1]; statin dose 1 mg", "value": 30, "unit": "%"},
      {"measurement": "% LDL-C Reduction", "setting": "[1]; statin dose 2 mg", "value": 32, "unit": "%"},
      {"measurement": "% LDL-C Reduction", "setting": "[1]; statin dose 4 mg", "value": 42, "unit": "%"}
    ]},
    {"compound": "CC(C)c1nc(N(C)S(C)(=O)=O)nc(-c2ccc(F)cc2)c1/C=C/[C@@H](O)C[C@@H](O)CC(=O)O", "note": "[Rosuvastatin]", "values": [
      {"measurement": "Reduction in LDL-C levels", "setting": "statin daily oral dose 5 mg", "value": 71.1528, "unit": "mg/dL"},
      {"measurement": "Reduction in LDL-C levels", "setting": "statin daily oral dose 10 mg", "value": 80.4336, "unit": "mg/dL"},
      {"measurement": "Reduction in LDL-C levels", "setting": "statin daily oral dose 20 mg", "value": 89.7144, "unit": "mg/dL"},
      {"measurement": "Reduction in LDL-C levels", "setting": "statin daily oral dose 40 mg", "value": 98.9952, "unit": "mg/dL"},
      {"measurement": "Reduction in LDL-C levels", "setting": "statin daily oral dose 80 mg", "value": 108.276, "unit": "mg/dL"},
      {"measurement": "% LDL-C Reduction", "setting": "[1]; statin dose 5 mg", "value": 44, "unit": "%"},
      {"measurement": "% LDL-C Reduction", "setting": "[1]; statin dose 10 mg", "value": 52, "unit": "%"},
      {"measurement": "% LDL-C Reduction", "setting": "[1]; statin dose 20 mg", "value": 56, "unit": "%"},
      {"measurement": "% LDL-C Reduction", "setting": "[1]; statin dose 40 mg", "value": 63, "unit": "%"}
    ]},
    {"compound": "COc1ccc2cc3[n+](cc2c1OC)CCc1cc2c(cc1-3)OCO2", "note": "[berberine]", "values": [
      {"measurement": "reduction of LDL-cholesterol in subjects", "setting": "[2]; 1 g daily", "value": "~16.4", "unit": "%"},
      {"measurement": "reduction of total cholesterol in subjects", "setting": "[2]; 1 g daily", "value": "about 11.6%"}
    ]},
    {"compound": "CC(C)=CCC/C(C)=C/C=C/C(C)=C/C=C/C(C)=C/C=C/C=C(C)/C=C/C=C(C)/C=C/C=C(\\C)CCC=C(C)C", "note": "[lycopene]", "values": [
      {"measurement": "reduction of LDL-cholesterol in subjects", "setting": "[2]; 22 mg daily", "value": "about 3.7 mg/dl"}
    ]}
  ]
}
